BigSolDB 2.1

C(=C\c1ccccc1)/CN1CCN(C(c2ccccc2)c2ccccc2)CC1
solubility (mole fraction)
Settings | 288.5 K | 293.5 K | 298.4 K | 303.3 K | 308.3 K | 313.2 K
in acetonitrile | 0.000877 | 0.00105 | 0.00137 | 0.00158 | 0.00204 | 0.00273
in isopropanol | 0.00064 | 0.000811 | 0.000994 | 0.00127 | 0.00165 | 0.00208
in n-butanol | 0.00273 | 0.00351 | 0.00412 | 0.00499 | 0.00607 | 0.00804
in n-butyl acetate | 0.0153 | 0.0197 | 0.0226 | 0.0272 | 0.0337 | 0.0425
